From paper PMC9937538 (Journal of Medicinal Chemistry, 2022) come the findings set out here.

Each structure is given as a SMILES string. Where a name gives a salt, the structure may show the parent alone. Read-outs that look alike come from different tables or passages of the source.

Assay [1] concerns the target hCA II (Homo sapiens, UniProt P00918). The assay is described as follows: CA inhibition, stopped-flow CO2 hydration assay.
Description: (§1) An applied photophysics stopped-flow instrument was used for assaying the CA-catalyzed CO2 hydration activity.[37]
(§2) The uncatalyzed rates were determined in the same manner and subtracted from the total observed rates. Stock solutions of the inhibitor (0.1 mM) were prepared in distilled–deionized water, and dilutions up to 0.01 nM were done thereafter with the assay buffer. Inhibitor and enzyme solutions were preincubated together for 15 min at room temperature prior to the assay to allow for the formation of the E–I complex. The inhibition constants were obtained by nonlinear least-squares methods using PRISM 3 and the Cheng–Prusoff equation, as reported earlier, and represent the mean from at least three different determinations. All CA isoforms were recombinant proteins obtained in-house, as reported earlier.[44]−[46]
The target in assay [2] is hCA I (Homo sapiens, UniProt P00915). The assay is described as follows: CA inhibition, stopped-flow CO2 hydration assay.
Description: as §1, §2
Assay [3] concerns the target hCA VB (Homo sapiens, UniProt Q9Y2D0). The assay is described as follows: CA inhibition, stopped-flow CO2 hydration assay.
Description: as §1, §2
For assay [4], the target named is hCA IX (Homo sapiens, UniProt Q16790). The assay is described as follows: CA inhibition, stopped-flow CO2 hydration assay.
Description: as §1, §2
Assay [5] addresses hCA IV (Homo sapiens, UniProt P22748). The assay is described as follows: CA inhibition, stopped-flow CO2 hydration assay.
Description: as §1, §2
The target in assay [6] is hCA VA (Homo sapiens, UniProt P35218). The assay is described as follows: CA inhibition, stopped-flow CO2 hydration assay.
Description: as §1, §2
Assay [7] addresses T1, purified recombinant human DPP IV (Homo sapiens, UniProt P27487).
T1 construct: purchased Cayman Chemicals (Michigan)
The assay is described as follows: In vitro DPP IV activity assay (fluorogenic Gly-Pro-AMC substrate). The format is biochemical. The protocol:
The DPP IV inhibition activities of the entire sets of compounds were carried out on purified recombinant human DPP IV using conditions previously optimized.[35]
Four independent in vitro experiments were carried out, and each of those was performed in triplicate in a white half-volume 96-well solid plate. […] Afterward, the samples were mixed and 50 μL was transferred to each plate well. Each reaction was started by adding 50 μL of the substrate solution (200 μM H-Gly-Pro-7-amido-4-methylcoumarin (AMC)) to each well and incubated at 37 °C for 30 min. […] The DPP IV enzyme and the substrate solution were provided by Cayman Chemicals (Michigan).

For assay [8], the target named is T2, human cloned α1a-AR (Homo sapiens, UniProt P35348).
T2 construct: expressed in transfected cells
T2 sequence (P35348 1-466): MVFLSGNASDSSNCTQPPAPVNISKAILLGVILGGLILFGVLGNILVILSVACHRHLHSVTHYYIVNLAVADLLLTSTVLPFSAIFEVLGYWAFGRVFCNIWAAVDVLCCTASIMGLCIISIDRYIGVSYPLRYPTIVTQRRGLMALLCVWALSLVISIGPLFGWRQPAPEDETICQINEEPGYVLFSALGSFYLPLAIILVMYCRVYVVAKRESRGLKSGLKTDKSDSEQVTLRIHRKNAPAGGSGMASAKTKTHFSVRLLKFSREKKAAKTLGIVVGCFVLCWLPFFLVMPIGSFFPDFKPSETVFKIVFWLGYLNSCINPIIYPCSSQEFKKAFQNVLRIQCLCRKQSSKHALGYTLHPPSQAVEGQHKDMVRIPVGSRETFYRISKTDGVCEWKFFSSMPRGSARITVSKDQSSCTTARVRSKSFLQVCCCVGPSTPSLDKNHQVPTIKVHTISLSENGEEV
The assay is described as follows: α1a-AR binding assay ([3H]prazosin displacement). As to conditions: human cloned α1a-AR expressed in HEK293 cells. From the text:
Since WB-4101 is a potent α1 antagonist, this adrenoreceptor subtype was chosen to assess the loss of adrenergic affinity.
Figure S3. […] Curves […]
from single experiments were fitted using the standard four parameter logistic equation and represent the mean ± S.E.M. of 4 observations, 2 experi-ments. X-axis: Log concentrations of competitive test compounds. Y-axis: normalized [3H]prazosin Bound/Total bound.
In the table are reported the affinity constants, expressed as pKi (-log Ki), of compounds 11, 12 and WB-4101 for human cloned α1a-AR expressed in HEK293 cells. The values represent the arithmetic mean ± S.E.M. of 4 observations, 2 experiments.
ND, not determinable; NA, not available.
Note: data generated from binding assays were analyzed using Prism 5.02 (GraphPad Software Inc., San Diego, CA) and were fitted to a parametric function to derive best estimates of the IC50 and slope factor (nH); IC50 values were then converted to binding constant Ki according to Cheng-Prus- […]
The details on the α1a-AR binding assay have been described before2.
(1 picture or pasted object on this page, not shown here)

The mark [9] stands for this setting: read-out: Ki CA II, stopped-flow technique, mean from three assays.
The mark [10] stands for this setting: read-out: Ki CA I, stopped-flow technique, mean from three assays.
Setting [11] is: read-out: Ki CA VB, stopped-flow technique, mean from three assays.
The mark [12] stands for this setting: read-out: Ki CA IX, stopped-flow technique, mean from three assays.
Where [13] appears, read: read-out: Ki CA IV, stopped-flow technique, mean from three assays.
The mark [14] stands for this setting: read-out: Ki CA VA, stopped-flow technique, mean from three assays.
Setting [15] is: mean from three different assays.

Sequence of hCA VB (Q9Y2D0 34-317): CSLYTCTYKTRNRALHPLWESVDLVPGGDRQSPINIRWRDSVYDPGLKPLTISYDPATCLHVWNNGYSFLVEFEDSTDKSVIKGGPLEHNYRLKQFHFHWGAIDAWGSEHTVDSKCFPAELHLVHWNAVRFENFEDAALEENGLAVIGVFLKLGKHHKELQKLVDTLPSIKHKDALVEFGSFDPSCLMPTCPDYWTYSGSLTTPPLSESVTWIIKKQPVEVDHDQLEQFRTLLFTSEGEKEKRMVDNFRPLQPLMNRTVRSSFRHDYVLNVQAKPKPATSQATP
Sequence of hCA IV (P22748 19-312): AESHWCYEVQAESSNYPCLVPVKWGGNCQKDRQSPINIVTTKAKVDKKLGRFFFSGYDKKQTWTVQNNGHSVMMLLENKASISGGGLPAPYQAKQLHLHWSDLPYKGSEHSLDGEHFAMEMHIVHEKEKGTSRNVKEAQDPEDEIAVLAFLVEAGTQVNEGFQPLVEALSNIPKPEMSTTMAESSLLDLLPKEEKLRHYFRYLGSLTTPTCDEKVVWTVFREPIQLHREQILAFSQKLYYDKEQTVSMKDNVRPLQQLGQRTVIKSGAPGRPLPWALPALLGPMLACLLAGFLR
Sequence of hCA I (P00915 whole entry): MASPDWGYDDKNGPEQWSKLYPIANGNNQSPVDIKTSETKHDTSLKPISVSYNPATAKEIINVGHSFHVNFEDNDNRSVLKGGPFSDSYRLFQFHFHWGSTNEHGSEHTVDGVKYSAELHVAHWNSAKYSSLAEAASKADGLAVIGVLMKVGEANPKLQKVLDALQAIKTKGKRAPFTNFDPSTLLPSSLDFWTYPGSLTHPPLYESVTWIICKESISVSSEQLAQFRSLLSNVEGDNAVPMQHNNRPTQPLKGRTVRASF
Sequence of hCA VA (P35218 39-305): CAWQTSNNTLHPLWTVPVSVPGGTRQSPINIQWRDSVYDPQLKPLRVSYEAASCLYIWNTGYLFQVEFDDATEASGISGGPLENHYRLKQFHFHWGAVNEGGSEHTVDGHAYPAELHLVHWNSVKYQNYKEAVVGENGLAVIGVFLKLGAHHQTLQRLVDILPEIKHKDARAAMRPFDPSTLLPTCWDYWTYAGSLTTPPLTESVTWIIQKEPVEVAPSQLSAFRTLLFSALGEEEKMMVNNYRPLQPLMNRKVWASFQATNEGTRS
T1 sequence (P27487 whole entry): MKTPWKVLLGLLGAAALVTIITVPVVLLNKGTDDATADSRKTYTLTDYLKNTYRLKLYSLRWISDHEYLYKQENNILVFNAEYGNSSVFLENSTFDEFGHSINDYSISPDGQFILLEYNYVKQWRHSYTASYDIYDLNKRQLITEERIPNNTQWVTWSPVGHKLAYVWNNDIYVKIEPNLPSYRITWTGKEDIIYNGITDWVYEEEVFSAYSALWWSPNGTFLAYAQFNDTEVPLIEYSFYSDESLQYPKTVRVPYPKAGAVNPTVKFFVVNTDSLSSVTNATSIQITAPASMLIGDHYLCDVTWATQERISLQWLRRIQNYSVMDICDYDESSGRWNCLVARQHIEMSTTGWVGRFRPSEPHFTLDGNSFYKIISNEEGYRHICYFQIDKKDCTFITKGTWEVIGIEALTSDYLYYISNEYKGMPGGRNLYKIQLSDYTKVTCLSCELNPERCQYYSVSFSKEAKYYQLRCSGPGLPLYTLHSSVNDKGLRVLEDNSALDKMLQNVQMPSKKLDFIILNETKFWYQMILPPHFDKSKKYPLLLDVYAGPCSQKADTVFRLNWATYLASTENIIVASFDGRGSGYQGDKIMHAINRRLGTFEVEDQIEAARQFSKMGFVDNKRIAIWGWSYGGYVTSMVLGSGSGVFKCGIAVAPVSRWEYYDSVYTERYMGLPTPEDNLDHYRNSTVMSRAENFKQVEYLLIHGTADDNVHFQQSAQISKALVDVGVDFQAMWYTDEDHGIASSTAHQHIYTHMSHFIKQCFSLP

One may read the Ki as the dissociation constant of the complex between target and ligand, obtained from inhibition or displacement. Take `CNS(=O)(=O)c1ccc(OCCNCC2COc3ccccc3O2)cc1` (stereo not shown) [Compound 2, [((2-(4-Methylsulfonamidephenoxy)ethyl)amino)-methyl]-1,4-benzodioxane Hydrochloride]: the inhibition constant (Ki) in assay [1] (setting [9]), in assay [2] (setting [10]), in assay [3] (setting [11]), in assay [4] (setting [12]), in assay [5] (setting [13]) and in assay [6] (setting [14]) was greater than 10 µM in each case.

As a reminder, the IC50 is the concentration needed to halve the response being measured. Regarding `COc1cccc(OC)c1OCCNCC1COc2ccccc2O1` (stereo not shown) [WB-4101, 2-[(2,6-dimethoxyphenoxyethyl)aminomethyl]-1,4-benzodioxane, reference compound], the Ki in assay [1] (setting [9]), in assay [2] (setting [10]), in assay [3] (setting [11]), in assay [4] (setting [12]), in assay [5] (setting [13]) and in assay [6] (setting [14]) was greater than 10 µM in each case. Moreover, in assay [7], the 50% inhibitory concentration (IC50) is greater than 700 µM.

On to `CC(C)NS(=O)(=O)c1ccc(OCCNCC2COc3ccccc3O2)cc1` (stereo not shown) [Compound 5, [((2-(4-Isopropylsulfonamidephenoxy)ethyl)amino)-methyl]-1,4-benzodioxane Hydrochloride], for which the inhibition constant (Ki) in assay [1], in assay [2], in assay [3], in assay [4], in assay [5] and in assay [6] was greater than 10 µM in each case.

`CCNS(=O)(=O)c1ccc(OCCNCC2COc3ccccc3O2)cc1` (stereo not shown) [Compound 3, [((2-(4-Ethylsulfonamidephenoxy)ethyl)amino)-methyl]-1,4-benzodioxane Hydrochloride]: the inhibitory constant (Ki) in assay [1] (setting [9]), in assay [2] (setting [10]), in assay [3] (setting [11]), in assay [4] (setting [12]), in assay [5] (setting [13]) and in assay [6] (setting [14]) was greater than 10 µM in each case.

Regarding `COc1cc(S(N)(=O)=O)ccc1OCCC(N=[N+]=[N-])C1COc2ccccc2O1` (stereo not shown) [Compound 10, 3-Methoxy-4-(3-azido-3-(1,4-benzodioxan)propoxy)benzenesulfonamide], the inhibitory constant (Ki) in assay [4] (setting [12]) turned out to be 0.111 µM.

Regarding `NS(=O)(=O)c1ccc(OCCNCC2COc3ccccc3O2)cc1` (stereo not shown) [Compound 1, [((2-(4-Sulfonamidephenoxy)ethyl)amino)-methyl]-1,4-benzodioxane Hydrochloride], in assay [4] (setting [12]), the Ki was 0.0203 µM.

On to `CS(=O)(=O)Nc1ccc(OCCNCC2COc3ccccc3O2)cc1` (stereo not shown) [Compound 6, [((2-(4-Methylsulfonylamidephenoxy)ethyl)amino)-methyl]-1,4-benzodioxane Hydrochloride], for which the Ki in assay [1] (setting [9]), in assay [2] (setting [10]), in assay [3] (setting [11]), in assay [4] (setting [12]), in assay [5] (setting [13]) and in assay [6] (setting [14]) was greater than 10 µM in each case.

As to `COc1cc(S(N)(=O)=O)cc(OC)c1OCCC(N)C1COc2ccccc2O1` (stereo not shown) [Compound 14, 3,5-Dimethoxy-4-(3-amino-3-(1,4-benzodioxan)propoxy)benzenesulfonamide], in assay [7] (setting [15]), the half-inhibitory concentration (IC50) came out at 0.0283 ± 0.0035 µM. In assay [4] (setting [12]), the Ki is 0.955 µM.

In the case of `[N-]=[N+]=NC(CCOc1ccc(S(N)(=O)=O)cc1)C1COc2ccccc2O1` (stereo not shown) [Compound 9, 4-(3-Azido-3-(1,4-benzodioxan)propoxy)benzenesulfonamide], in assay [7] (setting [15]), the concentration for half-maximal inhibition (IC50) was 669 ± 23.5 µM. Further, the inhibition constant (Ki) in assay [4] (setting [12]) was 0.328 µM.

On to `COc1cc(S(N)(=O)=O)ccc1OCCC(N)C1COc2ccccc2O1` (stereo not shown) [Compound 13, 3-Methoxy-4-(3-amino-3-(1,4-benzodioxan)propoxy)benzenesulfonamide], for which, in assay [7] (setting [15]), the IC50 was found to be 57.4 ± 3.2 µM. For the same compound, the Ki in assay [4] (setting [12]) turned out to be 0.0311 µM.

As to `CN(C)S(=O)(=O)c1ccc(OCCNCC2COc3ccccc3O2)cc1` (stereo not shown) [Compound 4, [((2-(4-Dimethylsulfonamidephenoxy)ethyl)amino)-methyl]-1,4-benzodioxane Hydrochloride], the inhibitory constant (Ki) in assay [1] (setting [9]), in assay [2] (setting [10]), in assay [3] (setting [11]), in assay [4] (setting [12]), in assay [5] (setting [13]) and in assay [6] (setting [14]) was greater than 10 µM throughout.

As to `CC(C)CS(=O)(=O)Nc1ccc(OCCNCC2COc3ccccc3O2)cc1` (stereo not shown) [Compound 8, [((2-(4-Isobutylsulfanilaminophenoxy)ethyl)amino)-methyl]-1,4-benzodioxane Hydrochloride], the Ki in assay [1] (setting [9]), in assay [2] (setting [10]), in assay [3] (setting [11]), in assay [4] (setting [12]), in assay [5] (setting [13]) and in assay [6] (setting [14]) was greater than 10 µM each time.

Turning to `CCS(=O)(=O)Nc1ccc(OCCNCC2COc3ccccc3O2)cc1` (stereo not shown) [Compound 7, [((2-(4-Ethylsulfonylamidephenoxy)ethyl)amino)-methyl]-1,4-benzodioxane Hydrochloride], the Ki in assay [1] (setting [9]), in assay [2] (setting [10]), in assay [3] (setting [11]), in assay [4] (setting [12]), in assay [5] (setting [13]) and in assay [6] (setting [14]) was greater than 10 µM in each case.

On to `N[C@@H](CC(=O)N1CCn2c(nnc2C(F)(F)F)C1)Cc1cc(F)c(F)cc1F` [Sitagliptin, reference compound], for which the inhibition constant (Ki) in assay [1] (setting [9]), in assay [2] (setting [10]), in assay [3] (setting [11]), in assay [4] (setting [12]), in assay [5] (setting [13]) and in assay [6] (setting [14]) was greater than 10 µM each time.

As for `COc1cc(S(N)(=O)=O)cc(OC)c1OCCC(N=[N+]=[N-])C1COc2ccccc2O1` (stereo not shown) [Compound 11, 3,5-Dimethoxy-4-(3-azido-3-(1,4-benzodioxan)propoxy)benzenesulfonamide], the IC50 in assay [7] (setting [15]) turned out to be 0.0332 ± 0.0058 µM. The inhibition constant Ki in assay [4] (setting [12]) is 0.745 µM. Moreover, in assay [8], the “binding affinity toward α1a-AR (in words)” value is reported as “absence of the binding affinity”. Further, in assay [8] (mean ± S.E.M.), the “pKi α1a-AR” value is listed as greater than 4.
